Activity calls are given as the source filed them.
Columns and labels:
LIM domain kinase 1 = LIM domain kinase 1 (Homo sapiens, UniProt P53667)
[1] = target: T1, Phosphatidylinositol 5-phosphate 4-kinase type-2 alpha (Homo sapiens, UniProt P48426)
T1 sequence (P48426 whole entry): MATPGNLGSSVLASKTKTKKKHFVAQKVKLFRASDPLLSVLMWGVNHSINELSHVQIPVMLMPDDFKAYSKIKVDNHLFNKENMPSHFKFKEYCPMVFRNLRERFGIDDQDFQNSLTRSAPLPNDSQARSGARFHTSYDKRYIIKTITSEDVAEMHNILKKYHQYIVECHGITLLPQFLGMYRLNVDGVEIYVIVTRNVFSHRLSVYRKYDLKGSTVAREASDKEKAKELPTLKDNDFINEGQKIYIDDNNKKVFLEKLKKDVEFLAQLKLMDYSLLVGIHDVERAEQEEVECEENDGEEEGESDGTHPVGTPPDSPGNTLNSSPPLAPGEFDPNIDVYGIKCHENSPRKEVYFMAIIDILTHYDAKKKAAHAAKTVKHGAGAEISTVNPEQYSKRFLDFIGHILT

[2] = target: MAP/microtubule affinity-regulating kinase 3 (Homo sapiens, UniProt P27448)
[3] = target: T2, Acyl-CoA dehydrogenase family member 10 (Homo sapiens, UniProt Q6JQN1)
T2 sequence (Q6JQN1 whole entry): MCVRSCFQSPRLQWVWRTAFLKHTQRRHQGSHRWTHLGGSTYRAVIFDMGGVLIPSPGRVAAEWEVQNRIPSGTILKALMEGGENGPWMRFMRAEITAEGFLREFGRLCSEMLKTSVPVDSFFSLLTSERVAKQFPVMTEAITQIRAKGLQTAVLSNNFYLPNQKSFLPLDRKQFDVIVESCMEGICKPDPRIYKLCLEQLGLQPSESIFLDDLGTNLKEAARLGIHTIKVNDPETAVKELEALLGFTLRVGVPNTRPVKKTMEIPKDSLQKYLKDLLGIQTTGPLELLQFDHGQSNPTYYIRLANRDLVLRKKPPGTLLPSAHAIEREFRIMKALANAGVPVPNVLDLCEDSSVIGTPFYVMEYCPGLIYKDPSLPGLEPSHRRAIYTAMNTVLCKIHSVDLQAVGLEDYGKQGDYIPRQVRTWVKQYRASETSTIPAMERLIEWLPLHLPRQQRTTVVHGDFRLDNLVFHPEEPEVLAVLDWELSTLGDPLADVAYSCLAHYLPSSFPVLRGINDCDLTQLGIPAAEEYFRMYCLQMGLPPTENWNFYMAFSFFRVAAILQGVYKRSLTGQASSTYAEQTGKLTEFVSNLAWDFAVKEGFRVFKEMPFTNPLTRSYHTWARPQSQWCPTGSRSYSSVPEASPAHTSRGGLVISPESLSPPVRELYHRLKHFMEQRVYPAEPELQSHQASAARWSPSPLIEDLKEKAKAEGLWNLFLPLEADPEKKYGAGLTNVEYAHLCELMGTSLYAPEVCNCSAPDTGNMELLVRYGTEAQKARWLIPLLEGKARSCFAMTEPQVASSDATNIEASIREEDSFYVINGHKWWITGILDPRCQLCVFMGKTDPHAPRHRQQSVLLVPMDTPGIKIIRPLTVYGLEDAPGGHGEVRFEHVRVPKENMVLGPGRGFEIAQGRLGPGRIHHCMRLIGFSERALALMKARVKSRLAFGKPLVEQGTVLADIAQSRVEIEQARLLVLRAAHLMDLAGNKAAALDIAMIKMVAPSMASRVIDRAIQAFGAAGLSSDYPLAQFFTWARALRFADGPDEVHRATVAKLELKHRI

[4] = target: T3, Phosphorylase b kinase gamma catalytic chain, liver/testis isoform (Homo sapiens, UniProt P15735)
T3 sequence (P15735 whole entry): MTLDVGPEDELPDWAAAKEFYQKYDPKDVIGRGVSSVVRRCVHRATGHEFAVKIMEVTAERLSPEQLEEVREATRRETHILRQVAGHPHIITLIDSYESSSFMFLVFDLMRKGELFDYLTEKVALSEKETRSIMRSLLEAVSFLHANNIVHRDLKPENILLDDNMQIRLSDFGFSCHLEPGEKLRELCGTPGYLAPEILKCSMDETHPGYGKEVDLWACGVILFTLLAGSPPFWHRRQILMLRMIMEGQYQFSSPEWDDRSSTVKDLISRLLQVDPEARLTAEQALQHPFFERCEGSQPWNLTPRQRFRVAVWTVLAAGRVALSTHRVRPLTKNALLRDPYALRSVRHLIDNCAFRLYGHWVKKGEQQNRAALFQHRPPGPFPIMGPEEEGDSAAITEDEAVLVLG

[5] = target: T4, Serine/threonine-protein kinase A-Raf (Homo sapiens, UniProt P10398)
T4 sequence (P10398 whole entry): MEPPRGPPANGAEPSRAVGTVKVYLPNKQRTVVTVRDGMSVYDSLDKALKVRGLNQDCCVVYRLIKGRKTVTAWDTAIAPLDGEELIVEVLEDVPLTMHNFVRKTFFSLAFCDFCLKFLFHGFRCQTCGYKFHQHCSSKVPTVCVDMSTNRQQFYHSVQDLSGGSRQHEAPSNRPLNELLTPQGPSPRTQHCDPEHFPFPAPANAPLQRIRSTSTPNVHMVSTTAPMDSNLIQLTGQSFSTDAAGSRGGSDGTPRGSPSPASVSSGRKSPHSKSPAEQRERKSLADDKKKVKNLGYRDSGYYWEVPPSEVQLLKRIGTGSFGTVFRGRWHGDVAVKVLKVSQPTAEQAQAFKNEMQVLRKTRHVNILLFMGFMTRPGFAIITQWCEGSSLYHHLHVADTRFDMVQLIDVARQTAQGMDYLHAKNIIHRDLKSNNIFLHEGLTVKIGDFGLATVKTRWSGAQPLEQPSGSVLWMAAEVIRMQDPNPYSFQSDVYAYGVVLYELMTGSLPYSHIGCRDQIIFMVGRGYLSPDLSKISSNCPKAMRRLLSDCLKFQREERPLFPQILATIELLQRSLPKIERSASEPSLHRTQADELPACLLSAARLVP

[6] = target: Tyrosine-protein kinase Lyn (Homo sapiens, UniProt P07948)
[7] = target: Putative heat shock protein HSP 90-beta 2 (Homo sapiens, UniProt Q58FF8)
Note: in the data inactive means no Kd found up to 30 µM.

Tyrosine-protein kinase Lyn, sequence (P07948 whole entry): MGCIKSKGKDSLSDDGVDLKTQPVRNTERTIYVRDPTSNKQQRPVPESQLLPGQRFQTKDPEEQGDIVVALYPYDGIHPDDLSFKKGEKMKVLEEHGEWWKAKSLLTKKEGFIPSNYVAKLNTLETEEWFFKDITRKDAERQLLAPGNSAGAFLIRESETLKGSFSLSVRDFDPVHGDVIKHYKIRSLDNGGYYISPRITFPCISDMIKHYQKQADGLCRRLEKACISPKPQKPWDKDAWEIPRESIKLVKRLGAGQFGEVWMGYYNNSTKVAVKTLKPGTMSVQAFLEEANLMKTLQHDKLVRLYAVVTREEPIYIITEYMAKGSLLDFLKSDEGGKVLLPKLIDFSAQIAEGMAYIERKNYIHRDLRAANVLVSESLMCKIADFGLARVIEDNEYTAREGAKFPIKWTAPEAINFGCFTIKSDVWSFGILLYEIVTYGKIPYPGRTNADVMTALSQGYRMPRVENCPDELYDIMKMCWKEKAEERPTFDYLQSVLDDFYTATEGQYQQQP
Putative heat shock protein HSP 90-beta 2, sequence (Q58FF8 whole entry): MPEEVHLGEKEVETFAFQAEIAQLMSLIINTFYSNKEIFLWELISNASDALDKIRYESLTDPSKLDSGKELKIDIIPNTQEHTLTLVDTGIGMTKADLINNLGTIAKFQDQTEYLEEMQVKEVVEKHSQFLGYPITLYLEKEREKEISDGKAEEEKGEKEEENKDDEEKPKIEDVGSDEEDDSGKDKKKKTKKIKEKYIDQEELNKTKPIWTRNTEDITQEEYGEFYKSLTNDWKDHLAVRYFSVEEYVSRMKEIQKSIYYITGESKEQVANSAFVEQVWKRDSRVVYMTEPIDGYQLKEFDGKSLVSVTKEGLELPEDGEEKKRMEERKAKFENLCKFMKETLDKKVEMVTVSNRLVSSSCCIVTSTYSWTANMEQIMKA
MAP/microtubule affinity-regulating kinase 3, sequence (P27448 whole entry): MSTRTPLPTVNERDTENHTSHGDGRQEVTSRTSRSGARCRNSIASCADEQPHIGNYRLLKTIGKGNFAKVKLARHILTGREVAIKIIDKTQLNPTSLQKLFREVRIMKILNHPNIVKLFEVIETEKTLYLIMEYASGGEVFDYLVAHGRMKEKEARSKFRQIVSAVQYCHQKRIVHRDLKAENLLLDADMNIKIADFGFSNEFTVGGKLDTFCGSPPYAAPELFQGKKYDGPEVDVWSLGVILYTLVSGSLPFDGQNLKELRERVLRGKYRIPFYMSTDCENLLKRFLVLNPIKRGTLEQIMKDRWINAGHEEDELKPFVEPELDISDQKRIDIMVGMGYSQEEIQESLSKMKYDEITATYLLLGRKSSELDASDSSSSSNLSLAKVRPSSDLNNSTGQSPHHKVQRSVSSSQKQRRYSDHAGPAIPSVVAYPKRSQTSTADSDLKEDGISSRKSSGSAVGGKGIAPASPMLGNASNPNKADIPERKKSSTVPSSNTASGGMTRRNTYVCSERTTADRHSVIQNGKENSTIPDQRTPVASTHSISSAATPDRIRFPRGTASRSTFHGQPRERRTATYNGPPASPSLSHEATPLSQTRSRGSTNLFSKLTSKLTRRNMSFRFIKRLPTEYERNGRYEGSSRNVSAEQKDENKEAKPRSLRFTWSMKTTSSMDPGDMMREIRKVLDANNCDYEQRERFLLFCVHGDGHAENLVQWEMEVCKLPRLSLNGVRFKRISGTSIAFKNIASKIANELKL
LIM domain kinase 1, sequence (P53667 whole entry, the tested form may be a part): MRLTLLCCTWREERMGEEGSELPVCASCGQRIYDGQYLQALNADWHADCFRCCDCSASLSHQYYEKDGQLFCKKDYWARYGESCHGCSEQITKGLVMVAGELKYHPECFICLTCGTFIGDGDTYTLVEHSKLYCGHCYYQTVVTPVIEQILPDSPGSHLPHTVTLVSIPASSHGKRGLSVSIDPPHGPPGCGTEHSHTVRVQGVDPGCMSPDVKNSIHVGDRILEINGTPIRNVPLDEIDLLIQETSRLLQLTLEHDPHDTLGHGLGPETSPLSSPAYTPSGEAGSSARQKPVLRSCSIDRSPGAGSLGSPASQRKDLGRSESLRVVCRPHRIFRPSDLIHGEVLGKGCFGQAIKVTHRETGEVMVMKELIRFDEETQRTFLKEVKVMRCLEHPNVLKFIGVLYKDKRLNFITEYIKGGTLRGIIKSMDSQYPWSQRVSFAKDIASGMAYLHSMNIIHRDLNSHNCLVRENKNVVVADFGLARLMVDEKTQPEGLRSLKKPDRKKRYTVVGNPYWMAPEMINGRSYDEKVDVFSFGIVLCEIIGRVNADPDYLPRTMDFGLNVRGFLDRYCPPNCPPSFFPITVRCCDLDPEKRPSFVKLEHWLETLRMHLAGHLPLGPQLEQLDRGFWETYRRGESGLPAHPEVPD

Kd (LIM domain kinase 1)	Kd [1]	Kd [2]	Kd [3]	Kd [4]	Kd [5]	Kd [6]	Kd [7]	Structure (SMILES)
2.17 µM (active)	> 30 µM (inactive)	> 30 µM (inactive)	> 30 µM (inactive)	> 30 µM (inactive)	> 30 µM (inactive)	> 30 µM (inactive)	> 30 µM (inactive)	O[C@H]1CC[C@H](Nc2ncc3nc(Nc4c(F)cc(F)cc4F)n([C@H]4CCOC4)c3n2)CC1 [TANZISERTIB]
> 30 µM (inactive)	> 30 µM (inactive)	> 30 µM (inactive)	> 30 µM (inactive)	> 30 µM (inactive)	> 30 µM (inactive)	> 30 µM (inactive)	> 30 µM (inactive)	Cc1cc(-c2cc(OC(=O)c3ccccc3)ccc2Cl)cc2nnc(Nc3ccc(OCCN4CCCC4)cc3)nc12 [TG100-801]
> 30 µM (inactive)	> 30 µM (inactive)	> 30 µM (inactive)	> 30 µM (inactive)	> 30 µM (inactive)	> 30 µM (inactive)	> 30 µM (inactive)	> 30 µM (inactive)	CNC(=O)c1cccc(-c2ccc3c(N4CCOC[C@@H]4C)nc(N4CCOC[C@@H]4C)nc3n2)c1 [VISTUSERTIB]
> 30 µM (inactive)	> 30 µM (inactive)	> 30 µM (inactive)	> 30 µM (inactive)	> 30 µM (inactive)	> 30 µM (inactive)	> 30 µM (inactive)	> 30 µM (inactive)	NC(=O)c1ccc(N(C(N)=O)c2c(F)cccc2F)nc1-c1ccc(F)cc1F [VX-702]
